Assay results from paper PMC11775380, “Discovery of Novel Nav1.7-Selective Inhibitors with the 1H-Indole-3-Propionamide Scaffold for Effective Pain Relief” (Research, 2025).
Like-named read-outs stand apart in the source and are kept apart here.

Experiment: Pharmacokinetic study in mice (p.o. and i.v.), LC-MS/MS of plasma
Assay type: in vivo, ICR mice
Settings: for MRT last: read-out: MRT(0-t); for MRT inf: read-out: MRT(0-∞)
Method: To evaluate the pharmaceutical properties of WN2-R, a preliminary pharmacokinetic study was conducted in mice to examine the in vivo pharmacokinetic profile following both oral (p.o.) and intravenous (i.v.) administrations, along with the determination of bioavailability (Table 2). Under p.o. conditions, WN2-R was rapidly absorbed, with drug detection occurring within 5 min. […] Similar to the p.o. study, the plasma concentration decreased gradually over time, approaching the quantitation limit at 6 to 8 h post-dosing (Fig. 7C).
The pharmacokinetic and bioavailability of WN2-R were examined in ICR mice following both p.o. and i.v. administrations. All animal experiment procedures were carried out in accordance with the animal experiment procedures promulgated by the State Science and Technology Commission of China and Animal Care and Use Committee of Institute of Materia Medica, Chinese Academy of Medical Sciences (registry no. 00008517). Male ICR mice (n = 12), weighing 20 ± 2 g, were obtained from Beijing Vital River Experimental Animal Co., Ltd. (Beijing, China). Before the experiment, the mice were kept under standard conditions, including a 12-h light/dark cycle, adequate ventilation, a temperature of 25 ± 2 °C, and 60% relative humidity. WN2-R, suspended in physiological saline, was orally administrated to mice at 10 mg/kg after an overnight fast. In addition, the mice were injected via caudal vein with WN2-R dissolved in 20% HP-β-CD at 1 mg/kg. Blood samples were collected from the retro-orbital venous plexus to ice-cooled EP tube containing 0.5% heparin sodium at 0.033 (i.v. only), 0.083, 0.25, 0.5, 1, 2, 4, 6, 8, 12, and 24 h after dosing. Plasma was obtained by centrifugation of blood at 8,000 rpm for 5 min. Subsequently, 20 μl of plasma sample was mixed with 140 μl of acetonitrile, vortexed for 30 s, and centrifuged twice at 14,000 rpm for 5 min. The resulting supernatant (2 μl) was analyzed by the liquid chromatography–tandem mass spectrometry (LC-MS/MS) method.
The LC-MS/MS system consisted of Thermo TSQ Access Max mass and Vanquish liquid chromatograph (Thermo Scientific, USA). Zorbax-SB C18 column (2.1 × 100 mm, 3.5 μm Agilent USA) was used in the analysis. The mobile phase consisted of water containing 0.1% formic acid (Phase A) and acetonitrile (Phase B) at a flow rate of 0.25 ml/min with an operation temperature of 35 °C. A gradient elution system was used as follows: 40% B at 0 to 1 min, 90% B at 1 to 4 min, 90% B down to 40% B at 4 to 5 min, and 40% B at 5 to 7 min. The automatic sampler was maintained at 15 °C throughout the analysis. For the mass spectrometry analysis, positive ion scanning in selected reaction monitor mode was applied to monitor the transition of m/z 458.2 to 191.9 for the determination of WN2-R. Besides, other instrument parameters, including ion spray voltage, capillary temperature, sheath gas, auxiliary gas, and collision energy, were optimized to enhance the analysis of WN2-R.
EXCEL and PRISM8.0 were used for data and chart preparation. The Winnolin professional software was employed for the pharmacokinetic parameter calculation. Bioavailability was calculated using the following formula: F (%) = (Di.v. × AUCp.o.)/(Dp.o. × AUCi.v.) × 100%.

[1] = male, ICR, mouse, plasma, iv, i.v. (1 mg/kg)
[2] = male, ICR, mouse, plasma, po, p.o. (10 mg/kg)

For Cc1ccc(Cn2cc([C@H](CC(=O)NCCN(C)C)c3ccc(F)cc3)c3ccccc32)cc1 [WN2-R], the “Time at which Cmax was detected” value (i.v. (1 mg/kg)) was 2 min, the V (i.v. (1 mg/kg)) was 23,580.98 ± 2,679.45 ml/kg and the Cmax (male, ICR, mouse, iv, i.v. (1 mg/kg), plasma) was 269 ± 11.9 ng/mL. The AUC(0-inf) [1] was 271 ± 30.8 ng·h/mL, the AUC(0-t) [1] was 267 ± 29.7 ng·h/mL and the Tmax [1] was 0.033 h. The clearance [1] was 62 mL/min/kg, the half-life [1] was 4.47 ± 0.96 h and the MRT last [1] was 3.21 ± 0.28 h. It also gave an MRT inf [1] of 3.56 ± 0.44 h, a bioavailability (male, ICR, mouse, plasma, oral, p.o. 10 mg/kg vs i.v. 1 mg/kg, from AUC(0-t), read-out: F (bioavailability)) of 20.3% and an AUC(0-inf) [2] of 546 ± 98.1 ng·h/mL. For the same compound, the AUC(0-t) [2] was 542 ± 98.5 ng·h/mL, the Tmax [2] was 0.25 h and the half-life [2] was 3.46 ± 0.5 h. The MRT last [2] was 5.66 ± 0.33 h, the MRT inf [2] was 5.87 ± 0.4 h and the Cmax (male, ICR, mouse, po, p.o. (10 mg/kg), plasma) was 139 ± 25.4 ng/mL.
